This note sets out measurements from US4751302A, “Indazole derivatives” (priority 1982, dated 1988).

The LD50 is the dose at which mortality reaches 50%. Read a low LD50 as a more toxic substance. What is called inhibition in vivo is the percentage by which the read-out fell short of the control. Read a low inhibition in vivo as a response near the control.

Structures are written as SMILES.

The nature of one series: in vivo. The following applies: mouse, ip, intraperitoneal, hydrochloride, male ddy mice.
For series [1], the system named is Carrageenin edema in rat's paw. In words: Carrageenin Edema Test in Rat's Paw (anti-inflammatory activity, Table 1). The series is classed as in vivo. As to conditions: 100 mg/kg oral; for inhibition in vivo at 100 mg/kg: hydrochloride, rat; for anti-inflammatory activity in comparison with compounds of the invention: Carrageenin edema. The protocol:
An anti-inflammatory activity was measured by orally administering 100 mg/kg of a hydrochloride of the indazole derivative of this invention as set forth in Table 1 to an animal in accordance with the standard method of Carrageenin Edema Test in Rat's Paw described in C. A. Winter et al., Proc. Soc. Exp. Biol. Med., 111, 544 (1962).

Regarding `CN1CCN(CCCNc2n[nH]c3ccc(Cl)cc23)CC1` [(64), 3-[3-(4-Methylpiperadino)propylamino]-5-chloroindazole], the LD50 in the series “in vivo” was determined as 229 mg/kg. The inhibition in vivo at 100 mg/kg in series [1] amounted to 29%.

`CCN(CC)CCCn1nc(N)c2cc(OC)ccc21` [(6), 1-(3-Diethylaminopropyl)-3-amino-5-methoxyindazole] registered an LD50 in the series “in vivo” of 188 mg/kg. In addition, the inhibition in vivo at 100 mg/kg in series [1] came to 56%.

In the series “in vivo”, `Clc1ccc2c(c1)c(NCCCN1CCCCCC1)nn2CCCN1CCCC1` [(112), 1-(3-Pyrrolidinopropyl)-3-(3-homopiperidinopropylamino)-5-chloroindazole] gave an LD50 of 325 mg/kg. In series [1], this compound returned an inhibition in vivo at 100 mg/kg of 29%.

The compound `CC(CCn1nc(NCCCN2CCCCC2)c2cc(Cl)ccc21)N1CCCCC1` (centres unmarked) [(105), 1-(3-Piperidinobutyl)-3-(3-piperidinopropylamino)-5-chloroindazole] registered an LD50 in “in vivo” of 231 mg/kg. The inhibition in vivo at 100 mg/kg in series [1] worked out at 29%.

Compound `Oc1ccc2[nH]nc(NCCCN3CCCCC3)c2c1` [(77), 3-(3-Piperidinopropylamino)-5-hydroxyindazole] had an LD50 in the series “in vivo” of 251 mg/kg. Moreover, 100 mg/kg produced 51% inhibition in vivo in series [1].

Consider `Clc1ccc2[nH]nc(NCCCN3CCC(Cl)CC3)c2c1` [(62), 3-[3-(4-Chloropiperidino)propylamino]-5-chloroindazole], for which, in “in vivo”, the LD50 was determined as 312 mg/kg. This compound also returned an inhibition in vivo at 100 mg/kg in series [1] of 65%.

As for `CCCCN(CCCC)CCCn1nc(NCCCN2CCOCC2)c2ccccc21` [(159), 1-(3-Di-n-butylaminopropyl)-3-(3-morpholinopropylamino)indazole], the LD50 in “in vivo” was 191 mg/kg. In series [1], this compound yielded an inhibition in vivo at 100 mg/kg of 41%.

On to `CC1CCCCN1CCCn1nc(N)c2cc(O)ccc21` (centres unmarked) [(37), 1-[3-(2-Methylpiperidino)propyl]-3-amino-5-hydroxyindazole], for which, in “in vivo”, the LD50 worked out at 267 mg/kg. In series [1], this compound yielded an inhibition in vivo at 100 mg/kg of 48%.

For the compound `CCN(CC)CCCNc1nn(CCCN(CC)CC)c2c(Cl)cccc12` [(92), 1-(3-Diethylaminopropyl)-3-(3-diethylaminopropylamino)-7-chloroindazole], the LD50 in the series “in vivo” was 211 mg/kg. Also, testing at 100 mg/kg in series [1] gave an inhibition in vivo of 32%.

`CC(C)CC(CCNc1n[nH]c2ccc(O)cc12)N1CCCCC1` (centres unmarked) [(80), 3-(3-Piperidino-5-methylhexylamino)-5-hydroxyindazole] registered an LD50 in the series “in vivo” of 332 mg/kg. This compound also showed an inhibition in vivo at 100 mg/kg in series [1] of 32%.

The compound `Nc1n[nH]c2cccc(O)c12` [(161), 3-Amino-4-hydroxyindazole] came in with an LD50 in “in vivo” of 211 mg/kg. In addition, at 100 mg/kg the inhibition in vivo in series [1] was 41%.

The compound `Oc1ccc2[nH]nc(NCCCN3CCOCC3)c2c1` [(88), 3-(3-Morpholinopropylamino)-5-hydroxyindazole] yielded an LD50 in the series “in vivo” of 346 mg/kg. The compound also registered an inhibition in vivo at 100 mg/kg in series [1] of 46%.

In the case of `Oc1ccc2c(c1)c(NCCCN1CCCCC1)nn2CCCN1CCCCC1` [(131), 1-(3-Piperidinopropyl)-3-(3-piperidinopropylamino)-5-hydroxyindazole], the LD50 in the series “in vivo” was 298 mg/kg. The same compound yielded an inhibition in vivo at 100 mg/kg in series [1] of 28%.

In the case of `CCCn1nc(N)c2ccccc21` [Compound C-1, 1-propyl-3-aminoindazole, reference compound], in series [1], the inhibition in vivo at 100 mg/kg came to 7% and the “anti-inflammatory activity in comparison with compounds of the invention” value (shortened to “anti-inflammatory activity in comparison”) was “little anti-inflammatory activity”.

For `Nc1n[nH]c2c(N)cccc12` [Compound C-3, 3,7-diaminoindazole, reference compound], in series [1], the inhibition in vivo at 100 mg/kg was determined as 6% and the “anti-inflammatory activity in comparison” value is “little anti-inflammatory activity”.

Take `Nc1nn(CCc2ccccc2)c2ccccc12` [Compound C-2, 1-(2-phenylethyl)-3-aminoindazole, reference compound]: in series [1], the inhibition in vivo at 100 mg/kg is 7% and the “anti-inflammatory activity in comparison” value is “little anti-inflammatory activity”.
